Measurements: US9487787B2, “Method for regulating protein function in cells using synthetic small molecules” (The Board of Trustees of the Leland Stanford Junior …, priority 2007, dated 2016)
Peptide text beside a SMILES is read from it. * marks the point of attachment. Cbz = O=C(OCc1ccccc1)*

Tests used:
[1] = molecular target: T1, FKBP L106P-YFP fusion protein (Homo sapiens, UniProt P62942, F37V); test: Shield1 dose-response stabilization of FKBP-YFP fusion, flow cytometry; assay type: cell-based
T1 construct: expressed in transfected cells
Method: (§1) The data for FIGS. 2A-2D are presented as the average mean fluorescence intensity (MFI)±SEM relative to that of the maximum fluorescence intensity observed for the individual mutant. Experiments were performed in triplicate. (FIG. 2A) Fluorescence of FKBP-YFP fusion proteins expressed in NIH3T3 cells as determined by flow cytometry in the absence of Shield1. (FIG. 2B) NIH3T3 cells stably expressing FKBP-YFP fusion proteins were treated with three-fold dilutions of Shield1 (1 μM to 0.1 nM) and the fluorescence was monitored by flow cytometry. (FIG. 2C) NIH3T3 cells stably expressing FKBP-YFP fusion proteins were either mock-treated (circles) or treated with 30 nM Shield1 (squares), 100 nM Shield1 (diamonds), 300 nM Shield1 (crosses), or 1 μM Shield1 (triangles). Fluorescence was monitored over time using flow cytometry. MFI was normalized to 100% of cells treated with 1 μM Shield1 at 24 hrs. (FIG. 2D) NIH3T3 cells stably expressing FKBP-YFP fusion proteins were treated with 1 μM Shield1 for 24 hours at which point the cells were washed with media to remove Shield1, and the decrease in fluorescence was monitored using flow cytometry.
(§2) Twenty-four hours prior to analysis, transduced NIH3T3 cells were plated at 1×10^5 cells per well of a 12-well plate and treated as described. Cells were removed from the plate using PBS+2 mM EDTA, washed once with PBS, and resuspended in 200 μl PBS. Cells were analyzed at the Stanford Shared FACS Facility using FlasherII with 10,000 events represented.
(§3) Each variant FKBP-derived, ligand-responsive destabilizing domain was separately transduced into NIH3T3 cells, and YFP fluorescence levels were measured in the absence of Shield1 (FIG. 2A). […] The most destabilizing variation, L106P, produced YFP fluorescence at a level of only 1-2% relative to the positive control. All FKBP-derived, ligand-responsive destabilizing domain variants produced increased fluorescence signal when incubated in the presence of Shield1 ([…]). […]

[2] = molecular target: T2, FKBP V24A-YFP fusion protein (Homo sapiens, UniProt P62942, F37V/V25A); test: as above; assay type: cell-based; conditions: NIH3T3 cells stably expressing V24A FKBP-YFP; extracellular Shield1 giving 50% of maximum YFP signal; read-out: EC50 of stabilization (rescue) by Shield1
T2 construct: expressed in transfected cells; host or cells: NIH3T3 (retroviral transduction)
Method: as §1, §2, §3

FKBP-YFP fusion proteins [3] = molecular target: T3, FKBP-YFP fusion proteins (Homo sapiens, UniProt P62942, F37V); test: Kinetics of FKBP-YFP fluorescence upon addition of Shield1; assay type: cell-based; conditions: NIH3T3 cells transduced with L106P-YFP
T3 construct: expressed in transfected cells
Method: as §1
(§4) FIG. 8 is a graph showing the kinetics of FKBP-YFP fluorescence in cells upon addition of Shield1. NIH3T3 cells stably expressing the indicated FKBP-YFP fusions were treated with 1 μM Shield1, and increases in fluorescence were monitored over time using flow cytometry. Data are presented as the average mean fluorescence intensity (MFI)±SEM relative to that of the maximum fluorescence intensity observed for the individual variant. The experiment was performed in triplicate, and MFI was normalized to 100% at 24 hr.
(§5) In a kinetic study of NIH3T3 cells stably expressing each of the five FKBP-derived, ligand-responsive destabilizing domain variants, YFP fluorescence increased at approximately the same rate upon addition of Shield1, with maximum fluorescence achieved at 24 hours and stably maintained for at least an additional 48 hours without further addition of Shield1 (FIG. 2C). […]

FKBP-YFP fusion proteins [4] = test: as above; assay type: cell-based, human; conditions: NIH3T3 cells stably expressing FKBP-YFP variants
Method: as §1, §4, §5

[5] = system: falcipain-2 fused to the F36V/L106P FKBP mutant; test: Conditional falcipain stabilization, swollen vacuole phenotype; assay type: cell-based, Plasmodium falciparum
Text: In a related experiment, fusion proteins were made with falcipain-2, a cysteine protease. Knocking out the falcipain-2 gene causes vacuole swelling resulting from the decreased ability of the organisms to degrade hemoglobin. Fusion of falcipain-2 to the F36V/L106P FKBP mutant produced a conditional falcipain stabilization system.

YFP fusion protein = test: Immunoblot of YFP fusion protein in transfected Plasmodium; assay type: cell-based, Plasmodium falciparum
[6] = system: FKBP-derived stability-affecting domain fused to the N-terminus of YFP; test: Time lapse fluorescence microscopy of parasitophorous vacuoles in infected HFF cells; assay type: cell-based, Toxoplasma gondii; conditions: T. gondii in HFF cells
Text: The fluorescence of parasitophorous vacuoles in infected cells was monitored by time lapse microscopy following addition (FIG. 6B) or removal of ligand (FIG. 6C). Background fluorescence is indicated.
Nucleotides expressing the fusion the fusion protein were introduced into T. gondii parasites, which were then used to infect HFF cells. The parasitophorous vacuoles in the infected cells were monitored by time lapse fluorescence microscopy following the addition of ligand (Shield1; FIG. 6B) or following the removal of ligand (FIG. 6C). The indicated control line corresponds to background fluorescence, while each of the other lines in the graphs correspond to individual infected cells.

[7] = system: luciferase fused to FKBP-derived stability-affecting protein (F36V/L106P); test: Bioluminescence imaging of mice challenged with HCT116 tumor cells expressing luciferase-FKBP fusion; assay type: in vivo, SCID mice
Text: FIGS. 7A and 7B are graphs showing the results of an experiments in which SCID mice were challenged with tumor cells genetically manipulated to express luciferase fused to a stability-affecting protein.
HCT116 cancer cells were transfected with a nucleic acids encoding the reporter gene luciferase fused to an FKBP-derived stability-affecting protein (F36V/L106P) mutant. Stable transformants were then selected and used to challenge SCID mice.
The results of an experiments in which SCID were challenged with tumor cells harboring nucleic acids encoding luciferase fused to an FKBP-derived, stability-affecting protein (F36V/L106P) are shown in FIGS. 7A and 7B. The mice were either untreated or treated with the indicated amounts of ligand (Shield1) and bioluminescent signals were imaged over time as described (Lin, A. H., et al. (2005) J. Immunol. 175:547-54; Luo, J., et al. (2006) Proc. Nat'l. Acad. Sci. USA 103:18326-31; n=4-10 mice per treatment group).

[8] = system: L106P-RhoA, L106P-Cdc42, Arl7-L106P in NIH3T3 cells; test: Ligand-dependent control of cell morphology by GTPase fusions, confocal microscopy; assay type: cell-based; conditions: Shield1-treated, mock-treated or Shield1 removed
Method: NIH3T3 cells stably expressing constitutively active GTPases fused to destabilizing domains were treated with 1 μM Shield1 for 24 hr. At this time, cells were washed once with PBS, plated at 8×10^3 cells in 4-well LabTek Chambered coverglass (NUNC) coated with 1 mg/ml poly-D-lysine (Sigma), along with mock-treated transduced cells and transduced cells treated with 1 μM Shield1. Cells were cultured for 24 hr in 10% DBS, then cultured in serum-free media for 12 hr. Cells were then washed with PBS, fixed in 4% paraformaldehyde for 15 min, permeabilized in 0.2% Triton X-100 for 5 min, stained with 1 μg/ml Alexa Fluor 488-conjugated phalloidin (Invitrogen; A12379) in PBS for 20 min, and washed with PBS. Fixed cells were imaged using a Bio-Rad Radiance 2100 confocal microscope.
Expression of constitutively active small GTPases causes well-characterized changes in cellular morphology (Heo and Meyer, 2003). To determine if FKBP-derived destabilizing domains, in combination with Shield1, could affect cell morphology by modulating GTPases levels, several small GTPases (i.e., RhoA, Cdc42, or Arl7) were fused to the destabilizing domains (FIGS. 4A and 4B). NIH3T3 cells were individually transduced with the L106P-RhoA, L106P-Cdc42, or Arl7-L106P (note arrangement of fusions), and then mock-treated or treated with Shield1, and visualized using confocal microscopy (not shown). […]

[9] = system: FKBP variant fusions to proteins of interest in NIH3T3 cells; test: Immunoblot of proteins of interest fused to FKBP destabilizing domains, mock or 1 μM Shield1; assay type: cell-based
Method: (FIG. 4A) FKBP variants F15S and L106P were fused to the N-termini of several different proteins and transduced into NIH3T3 cells. Cell populations stably expressing the fusions were then either mock-treated or treated with 1 μM Shield1, and cell lysates were subjected to immunoblot analysis using antibodies specific for the protein of interest. Endogenous proteins served as loading controls (when detected) and Hsp90 served as a loading control otherwise. (FIG. 4B) FKBP variants D100G and L106P were fused to the C-termini of several different proteins of interest and treated as above.
An additional example is CD8α, a transmembrane glycoprotein found on the surface of T cells, which was able to be detected on the surface of cells by flow cytometry (FIG. 5), in a Shield1-dependent manner. […] Here, NIH3T3 cells stably expressing the fusion proteins were divided into three pools (groups). The first group (−) was mock-treated, the second group (+) was treated with 1 μM Shield1 for 24 hrs, and the third group (+/−) was treated with 1 μM Shield1 for 24 hrs, and then washed with media and cultured for 24 hr in the absence of Shield1. Live cells were then probed with a FITC-conjugated anti-CD8α antibody and assayed by flow cytometry. Data are presented as the average mean fluorescence intensity±SEM from an experiment performed in triplicate.

FKBP F36V variant = FKBP F36V variant (Homo sapiens, UniProt P62942, F37V); conditions: Clackson et al. 1998; cited from earlier work
proteasome = test: Immunoblot of F15S-YFP and L106P-YFP after Shield1 withdrawal with proteasome inhibitors; assay type: cell-based; conditions: 10 μM, 4 hrs, F15S-YFP and L106P-YFP in NIH3T3
Method: Immunoblot analysis was performed using an anti-YFP antibody.
The mechanism of degradation was examined for the F15S and L106P variants. Since the ubiquitin-proteasome system is a major mediator of intracellular protein degradation (Pickart, 2004), the cells expressing either the FKBP-derived, ligand-responsive destabilizing domain variants F15S or L106P were incubated with MG132 (FIG. 2F) or lactacystin (FIG. 9), which inhibit ubiquitin-proteasome-mediated protein degradation.

luciferase fused to FKBP-derived stability-affecting protein (F36V/L106P), sequence (P62942 with tags, fused parts or gaps F37V limits assumed): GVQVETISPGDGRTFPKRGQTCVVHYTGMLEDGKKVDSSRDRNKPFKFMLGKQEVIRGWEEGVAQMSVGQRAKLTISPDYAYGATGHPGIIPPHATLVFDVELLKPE
T1 sequence (P62942 with tags, fused parts or gaps F37V): as the sequence (P62942 with tags, fused parts or gaps F37V limits assumed) above
FKBP F36V variant, sequence (P62942 2-108 F37V limits assumed): as the sequence (P62942 with tags, fused parts or gaps F37V limits assumed) above, with P106L counted along it
T3 sequence (P62942 with tags, fused parts or gaps F37V): as the sequence (P62942 with tags, fused parts or gaps F37V limits assumed) above
falcipain-2 fused to the F36V/L106P FKBP mutant, sequence (P62942 with tags, fused parts or gaps F37V limits assumed): as above
T2 sequence (P62942 2-108 V25A/F37V): as the sequence (P62942 with tags, fused parts or gaps F37V limits assumed) above, with V24A, P106L counted along it

Compound	L106P-YFP stabilization upon addition of Shield1 ([1]; 1 μM Shield1)	EC50 ([1]; NIH3T3 cells stably expressing L106P FKBP-YFP) [nM]	EC50 [2] [nM]	time within which YFP expression is observed after Shield1 treatment (FKBP-YFP fusion proteins [3]) [min]	additional time maximum fluorescence is stably maintained without further addition of Shield1 (FKBP-YFP fusion proteins [4]) [h]	time at which maximum fluorescence is achieved after addition of Shield1 (FKBP-YFP fusion proteins [4]) [h]	organisms with swollen vacuole phenotype, presence of ligand compared to absence [5]	levels of YFP fusion protein in the presence of ligand (YFP fusion protein)	levels of YFP on addition / removal of ligand [6]	effect of repeated administration of the ligand ([7]; 10 mg/kg Shield1 every 48 hours)	time of peak luminescence following a single injection of ligand ([7]; SCID mice, HCT116 luciferase-FKBP F36V/L106P tumors)	dependence of luminescence on ligand dose ([7]; SCID mice, single injection)	percentage of cells displaying the predicted morphology (penetrance) [8] [%]	Shield1-dependent stability of fusion proteins [9]	binding to F36V variant compared to wild-type FKBP (FKBP F36V variant)	effect on degradation of variant FKBP fusion proteins following withdrawal of Shield1 (proteasome)
1-[2-(3,4,5-trimethoxy-phenyl)-butyryl]-piperazine-2-carboxylic acid 3-(3,4-dimethoxy-phenyl)-1-[3-(2-morpholin-4-yl-ethoxy)-phenyl]-propyl ester [Shield1]	fully stabilized	~100	~5	≤ 15	≥ 48	24	More than 5 times	greatly increased	levels of YFP increase in the presence of ligand and decrease in the absence of ligand	continued luciferase stabilization	about 10 hours	dependent on ligand dose	> 90	Shield1-dependent stability	about 1,000 fold	–
CC(C)C[C@@H](C=O)NC(=O)[C@H](CC(C)C)NC(=O)[C@H](CC(C)C)NC(=O)OCc1ccccc1 [MG132] (Cbz-Leu-Leu-Leu-aldehyde)	–	–	–	–	–	–	–	–	–	–	–	–	–	–	–	inhibited degradation
CC(=O)N[C@@H](CSC(=O)[C@]1([C@@H](O)C(C)C)NC(=O)[C@H](C)[C@@H]1O)C(=O)O [lactacystin]	–	–	–	–	–	–	–	–	–	–	–	–	–	–	–	inhibited degradation
